What was measured:
[1] = system: human myeloid leukemia cell line (HL-60); details: cited from earlier work; for conversion of immature blast cells into mature granulocytes: HL-60 in vitro
[2] = system: hematopoietic recovery after cyclophosphamide; assay: Hematopoietic recovery after cyclophosphamide (Example 50); format: in vivo, Balb/C mice; details: 2 μmoles/mouse
Experimental: Cyclophosphamide (CP) (275 mg/kg, i.p.) was administered to 96 Balb/C female mice weighing approximately 20 grams each. Twenty-four hours later and each day thereafter mice were given a 0.4 ml i.p. injection of either Tween-80 (0.2%) (controls), palmitoyldeoxyguanosine (2 μmoles/mouse), palmitoyldeoxyinosine (2 μmoles/mouse), palmitoylacyclovir (2 μmoles/mouse), palmitoylarabinosylguanine (2 μmoles/mouse), palmitoylarabinosylhypoxanthine (2 μmoles/mouse), monopalmitoylguanosine 2',3'-acyclic dialcohol (2 μmoles/mouse), and palmitoyl-8-thioguanosine (2 μmoles/mouse). On days 5 and 7 following CP administration 6 animals in each of the 8 groups were bled and then sacrificed by cervical dislocation. Spleens were removed and weighed, and complete blood cell counts performed.

[3] = system: hematopoiesis in normal mice; assay: Hematopoiesis in normal mice (Example 56); format: in vivo, Balb/C mice; details: day 5, 2.6 μmoles/mouse, 4 days
Experimental: Normal Balb/C female mice weighing approximately 20 grams each were given a daily 0.4 ml i.p. injection of either physiological saline (controls), palmitoylguanosine (2.6 μmoles/mouse), palmitoyldeoxyguanosine (2.6 μmoles/mouse), monopalmitoylguanosine 2',3'-acyclic dialcohol (2.6 μmoles/mouse), and palmitoyl-8-bromoguanosine (2.6 μmoles/mouse) for 4 days. On the fifth day all 3 animals in each of the 5 groups were bled and then sacrificed by cervical dislocation. Spleens were removed and weighed, and complete blood cell counts performed. Femoral bone marrow from each mouse was collected and a differential cell count performed on marrow smears.

[4] = system: blood cell counts after cyclophosphamide; assay: Hematopoietic recovery after cyclophosphamide (Example 63); format: in vivo, Balb-C mice; details: for Spleen: 25 mg/kg TriPdG or molar equivalent
Experimental: Fifty-eight female Balb-C mice weighing approximately 20 grams each received a single injection of cyclophosphamide (250 mg/kg, i.p.), and were then distributed into a vehicle control group (0.2% Tween-80+7.5% DMSO in saline; n=12) or one of five treatment groups:
Vehicle or treatment agents were administered to mice once daily for five days at a volume of 0.4 ml by i.p. injection. TriPdG was given at a dose of 25 mg/kg/treatment. The other four agents were given in doses that are the molar equivalent of 25 mg/kg/treatment of TriPdG. On days 5 and 7 following CP administration half of the animals from each of the six groups were bled and then sacrificed by cervical dislocation. Five untreated mice were also bled and sacrificed to provide data on normal (basal) values. Spleens were removed and weighed, and complete blood cell counts performed.

[5] = system: blood cell counts after 5-fluorouracil; assay: Pretreatment dose response, recovery after 5-fluorouracil (Example 65); format: in vivo, Balb/C mice
Experimental: Sixty female Balb/C mice weighing approximately 20 grams each were distributed into one of five treatment groups and treated once daily for three days by i.p. injection with 3',5'-O-N^2 -tripalmitoyl-2'-deoxyguanosine at a dose of either 1, 5, 10, 25, or 50 mg/kg/treatment in a Tween-DMSO vehicle (0.2% Tween-80 and 7.5% DMSO in physiological saline). Injection volume was 0.4 ml. An additional twelve animals (controls) received vehicle alone on those three days. On the fourth day all seventy-two animals received a single i.p. injection of 5-fluorouracil (5-FU) at a dose of 150 mg/kg. On days 7 and 10 following 5-FU administration six mice from each group were bled and then sacrificed by cervical dislocation. Six untreated mice were also bled and sacrificed to provide data on normal (basal) values. Spleens were removed and weighed, and complete blood cell counts performed.

[6] = system: blood cell counts after cyclophosphamide; assay: Hematopoietic recovery after cyclophosphamide (Example 62); format: in vivo, Balb/C mice; details: for Spleen: 25 mg/kg TriPdG or molar equivalent
Experimental: Thirty-six female Balb/C mice weighing approximately 20 grams each received a 0.4 ml i.p. injection of either 3',5'-O-N^2 -tripalmitoyl-2'-deoxyguanosine (triPdG) at a dose of 25 mg/kg/treatment or 3',5'-O-dipalmitoyl-2'-deoxyguanosine (diPdG) at a dose that was the molar equivalent of 25 mg/kg tripalmitoylgdeoxyguanosine, in a Tween-DMSO vehicle (0.2% Tween-80 and 7.5% DMSO in saline) or vehicle alone one time daily for five days following a single injection of cyclophosphamide (CP) (250 mg/kg, i.p.). On days 5 and 7 following CP administration six animals from each of these three groups were bled and then sacrificed by cervical dislocation. Six untreated mice were also bled and sacrificed to provide data on normal. (basal) values. Spleens were removed and weighed, and complete blood cell counts performed.

[7] = system: bone marrow cells; assay: Proliferation of bone marrow cells in long-term culture (Example 68); format: cell-based, B6D2F1 mice; details: 10 micrograms per ml
Experimental: Bone marrow cells from the femurs of B6D2F1 mice were used to establish long-term marrow cultures. After four weeks, when the stromal layer was confluent, the culture was treated with microphenolic acid in order to remove all cells from the stroma. New normal bone marrow cells (1×10^5 /ml) from the same source were then used to "recharge" the stromal layer. Palmitoyldeoxyguanosine was added to half of the cultures at a concentration of 10 micrograms per ml. Cells were counted on days 1, 3, 5, and 7 following addition of palmitoyldeoxyguanosine. On days 4 and 7 cells from the culture were removed, washed, and replated in methylcellulose. The number of granulo-monocytic colonies was counted one week later.

[8] = system: FDCPmix cells; assay: Proliferation of FDCPmix cells, MTT assay (Example 69); format: cell-based
Experimental: The FDCPmix cell line was used as a suitable in vitro model for predicting the effects of hematopoietic factors on pluripotential stem cells. These cells can be maintained in an-undifferentiated state in the presence of IL-3 or undergo multi-lineage development in the presence of specific hematopoietic growth factors.
This level of proliferation (100%) served as the control value. Inhibition of proliferation by test compounds was represented as a percent of control.
FDCPmix cells were plated at a density of 5×10^4 cells per well in 96-well plates (5×10^5 /ml) using IMDM medium plus 10% fetal bovine serum. […] Test compounds were added at a decreasing concentrations ranging from 10 micrograms/ml down to 1 nanogram/ml. The test compounds included: 3',5'-O-N^2 -tripalmitoyl-2'-deoxyguanosine, 3',5'-di-O-palmitoyl-2'-deoxyguanosine, 3',5'-O-N^2 -trioctanoyl-2'-deoxyguanosine, 3',5'-di-O-octanoyl-2'-deoxyguanosine, and 3',5'-O-N^2 -trioleyl-2'-deoxyguanosine.

[9] = system: hematopoietic recovery after cyclophosphamide; assay: Hematopoietic recovery after cyclophosphamide (Example 48); format: in vivo, Balb/C mice
Experimental: Cyclophosphamide (CP) (275 mg/kg, i.p.) was administered to 36 Balb/C female mice weighing approximately 20 grams each. Twenty four hours later and each day thereafter for a total of 4 or 6 days, mice were given a 0.4 ml i.p. injection of either physiological saline (controls), palmitoyldeoxyinosine (2.5 μmoles/mouse), or palmitoylxanthosine (2.5 μmoles/mouse). On days 5 and 7 following CP administration 6 of the 12 animals in each of the 3 groups were bled and then sacrificed by cervical dislocation. Spleens were removed and weighed, and complete blood cell counts performed.

[10] = system: hematopoiesis in normal mice; assay: Hematopoiesis in normal mice (Example 44); format: in vivo, Balb/C mice
Experimental: Normal, otherwise untreated, female Balb/C mice weighing approximately 20 grams each received a total of 4 or 9 0.4 ml intraperitoneal injections (one per day) of either Tween-80 (0.2%) (controls), palmitoylguanosine (2.5 μmoles/mouse/day), or palmitoyldeoxyinosine (2.5 μmoles/mouse/day). Twenty-four hours after the 4th or 9th treatment, groups of 5 or 6 animals from each of the 3 groups were bled and then sacrificed by cervical dislocation. Spleens were removed and weighed, and complete blood cell counts performed.

[11] = 48 h, read-out: Cell proliferation

CC1=C(/C=C/C(C)=C/C=C/C(C)=C/C(=O)O)C(C)(C)CCC1 [retinoic acid, reference compound]
conversion of immature blast cells into mature granulocytes [1]: induced

Palmitoylguanosine 2,3'-acyclic dialcohol
spleen weight ([2]; day 5): significantly elevated | platelet counts [3]: significantly elevated in the all of the treatment groups except palmitoylguanosine 2',3'-acyclic dialcohol | spleen weight [3]: significantly elevated | number of myelocytes ([3]; femoral bone marrow): significantly greater

OC[C@H]1O[C@@H](n2cnc3c(O)ncnc32)[C@H](O)[C@@H]1O [inosine]
effect on induced maturation of HL-60 cells ([1]; HL-60 with inducing agents): no effect on induced maturation

CCCCCCCCCCCCCCCC(=O)OCCOCn1cnc2c(=O)[nH]c(N)nc21 [1-O-palmitoylacyclovir, palmitoylacyclovir]
white blood cell count ([2]; day 5): significantly elevated compared to controls in all but one treatment group (1-O-palmitoylacyclovir)

CN(C)C=O [dimethylformamide, reference compound]
conversion of immature blast cells into mature granulocytes [1]: induced

palmitoylarabinosylguanine
spleen weight ([2]; day 7): significantly elevated on day 7 in all treatment groups except palmitoylarabinosylguanine

CCCCCCCCCCCCCCCC(=O)Nc1nc2c(ncn2[C@H]2C[C@H](OC(=O)CCCCCCCCCCCCCCC)[C@@H](COC(=O)CCCCCCCCCCCCCCC)O2)c(=O)[nH]1 [TriPdG, 3',5'-O-N^2-tripalmitoyl-2'-deoxyguanosine]
Neutrophils ([4]; 5 days after CP): 0.6 ± .1 K/μl | Platelets ([4]; 5 days after CP): 330 ± 19 K/μl | WBC ([4]; 5 days after CP): 3.6 ± .4 K/μl | Spleen ([4]; 5 days after CP): 73 ± 3 mg | Neutrophils ([4]; 7 days after CP): 7.3 ± .3 K/μl | Platelets ([4]; 7 days after CP): 674 ± 37 K/μl | WBC ([4]; 7 days after CP): 3.6 ± .4 K/μl | Spleen ([4]; 7 days after CP): 198 ± 23 mg | Platelets ([5]; 7 days after 5-FU, 1 mg/kg): 457 ± 36 K/μl | Spleen ([5]; 7 days after 5-FU, 1 mg/kg): 74 ± 3 mg | Platelets ([5]; 7 days after 5-FU, 5 mg/kg): 682 ± 66 K/μl | Spleen ([5]; 7 days after 5-FU, 5 mg/kg): 78 ± 4 mg | Platelets ([5]; 7 days after 5-FU, 10 mg/kg): 571 ± 41 K/μl | Spleen ([5]; 7 days after 5-FU, 10 mg/kg): 83 ± 6 mg | Platelets ([5]; 7 days after 5-FU, 25 mg/kg): 587 ± 19 K/μl | Spleen ([5]; 7 days after 5-FU, 25 mg/kg): 93 ± 5 mg | Platelets ([5]; 7 days after 5-FU, 50 mg/kg): 596 ± 43 K/μl | Spleen ([5]; 7 days after 5-FU, 50 mg/kg): 102 ± 4 mg | Lymphocytes ([5]; 10 days after 5-FU, 1 mg/kg): 5.7 ± .2 K/μl | Neutrophils ([5]; 10 days after 5-FU, 1 mg/kg): 0.4 ± .2 K/μl | Spleen ([5]; 10 days after 5-FU, 1 mg/kg): 96 ± 13 mg | WBC ([5]; 10 days after 5-FU, 1 mg/kg): 6.2 ± .4 K/μl | Lymphocytes ([5]; 10 days after 5-FU, 5 mg/kg): 6.3 ± .7 K/μl | Neutrophils ([5]; 10 days after 5-FU, 5 mg/kg): 1.6 ± .4 K/μl | Spleen ([5]; 10 days after 5-FU, 5 mg/kg): 157 ± 13 mg | WBC ([5]; 10 days after 5-FU, 5 mg/kg): 8.2 ± .9 K/μl | Lymphocytes ([5]; 10 days after 5-FU, 10 mg/kg): 5.7 ± .4 K/μl | Neutrophils ([5]; 10 days after 5-FU, 10 mg/kg): 1.8 ± .4 K/μl | Spleen ([5]; 10 days after 5-FU, 10 mg/kg): 169 ± 24 mg | WBC ([5]; 10 days after 5-FU, 10 mg/kg): 7.7 ± .6 K/μl | Lymphocytes ([5]; 10 days after 5-FU, 25 mg/kg): 8.3 ± .4 K/μl | Neutrophils ([5]; 10 days after 5-FU, 25 mg/kg): 2.9 ± .4 K/μl | Spleen ([5]; 10 days after 5-FU, 25 mg/kg): 293 ± 17 mg | WBC ([5]; 10 days after 5-FU, 25 mg/kg): 11.4 ± .6 K/μl | Lymphocytes ([5]; 10 days after 5-FU, 50 mg/kg): 8.3 ± 1.0 K/μl | Neutrophils ([5]; 10 days after 5-FU, 50 mg/kg): 2.2 ± .5 K/μl | Spleen ([5]; 10 days after 5-FU, 50 mg/kg): 320 ± 39 mg | WBC ([5]; 10 days after 5-FU, 50 mg/kg): 10.8 ± 1.6 K/μl | Neutrophils ([6]; 5 days after CP): 2.5 ± .3 K/μl | WBC ([6]; 5 days after CP): 4.1 ± .4 K/μl | Spleen ([6]; 5 days after CP): 77 ± 7 mg | Neutrophils ([6]; 7 days after CP): 9.9 ± .9 K/μl | Platelets ([6]; 7 days after CP): 549 ± 25 K/μl | WBC ([6]; 7 days after CP): 13.4 ± .4 K/μl | Spleen ([6]; 7 days after CP): 156 ± 12 mg | Cells ([7]; day 1): 1.9 ± .13 10^6 /flask | Cells ([7]; day 3): 2.9 ± .10 10^6 /flask | granulocyte/macrophage colony-forming units ([7]; day 4): 5123 ± 561 CFU-GM/flask | Cells ([7]; day 5): 7.7 ± .2 10^6 /flask | Cells ([7]; day 7): 4.3 ± .15 10^6 /flask | granulocyte/macrophage colony-forming units ([7]; day 7): 33903 ± 9457 CFU-GM/flask | inhibition of proliferation ([8]; 10 micrograms/ml down): significant dose-dependent inhibitory effects at doses from 10 micrograms per ml down to 100 nanograms per ml | activity at 0.01 µg/mL [8, 11]: 78 ± 1% | activity at 0.039 µg/mL [8, 11]: 76 ± 2% | activity at 0.156 µg/mL [8, 11]: 72 ± 3% | activity at 0.625 µg/mL [8, 11]: 60 ± 2% | activity at 2.5 µg/mL [8, 11]: 51 ± 0.7% | activity at 10 µg/mL [8, 11]: 51 ± 0.6%

CCCCCCCCCCCCCCCC(=O)OC[C@H]1O[C@@H](n2cnc3c(=O)[nH]cnc32)C[C@@H]1O
spleen weight ([2]; day 5): significantly elevated | spleen weight ([9]; day 5, 2.5 μmoles/mouse, vs controls): significantly elevated | neutrophil counts ([9]; day 5, vs controls): significantly elevated | total leukocyte counts ([9]; day 5, vs controls): significantly elevated | neutrophil counts ([9]; day 5, vs palmitoylxanthosine): significantly elevated | total leukocyte counts ([9]; day 5, vs palmitoylxanthosine): significantly elevated | Neutrophils ([9]; day 7, vs controls): significantly increased | spleen weight ([9]; day 7, vs controls): significantly increased | total leukocytes ([9]; day 7, vs controls): significantly increased | spleen weight ([10]; day 5, 2.5 μmoles/mouse/day i.p.): significantly greater | neutrophil counts ([10]; day 10, vs Tween 80): significantly greater | spleen weight ([10]; day 10, vs Tween 80): significantly greater | total leukocyte counts ([10]; day 10, vs Tween 80): significantly greater

palmitoylarabinosylhypoxanthine
spleen weight ([2]; day 7): significantly elevated on day 7 in all treatment groups except palmitoylarabinosylguanine and palmitoylarabinosylhypoxanthine
